The test system of one experiment is NCI-H226 cells. The experiment is described as follows: Cell growth inhibition test (SRB) in NCI-H226 cells. Type of experiment: cell-based. Particulars: Homo sapiens, 144 h, NCI-H226 NF2 gene-deficient mesothelioma cancer cell line, 6 days. On the procedure:
The ability of the synthetic compounds to inhibit the growth of NCI-H226 cells was identified. NCI-H226, which is an NF2 gene-deficient mesothelioma cancer cell line, was cultured in a RPMI 1640 medium supplemented with 10% FBS and 1% Penicillin/Streptomycin. The cultured cells were aliquoted into a 96-well plate at a density of 0.7×10^3 cells/100 μl and cultured for 24 hours, and then 100 μl of a test compound diluted to 2× concentration was mixed with each well and cultured for 6 days. SRB test method was used to measure cell growth inhibition, and a 50% inhibitory concentration (GI50) on cell growth by the compound was calculated by using GraphPad Prism 9.
A GI50value less than 100 nM was expressed as A and a GI50 value not less than 100 nM was expressed as B.

Another experiment concerns TEAD. The experiment can be described thus: TEAD reporter activity inhibition test (luciferase reporter in MCF7 cell line). Format: cell-based. Particulars: Homo sapiens; MCF7 TEAD (GTIIC) firefly luciferase reporter cell line, 24 hours, ONE-Glo luminescence; read-out: IC50 on TEAD transcription activity. On the procedure: The ability of the synthetic compounds to inhibit transcription of a target gene by TEAD was measured. This evaluation method was a method of measuring transcriptional activity of TEAD by measuring luminescence intensity of luciferase expressed in the case where TEAD binds to a target gene and activates transcription thereof, by using MCF7 cell line (BPS Bioscienc, Inc., USA) constructed by introducing firefly luciferase reporter gene into GTIIC (5′-ACATTCCA-3′), which is a specific binding structure of TEAD. The cell line was cultured in a MEM medium supplemented with 10% FBS, 1% Penicillin/Streptomycin, 1% non-essential amino acids, 10 μg/ml insulin, and 400 μg/ml Geneticin. In the test of inhibiting the TEAD reporter activity, Geneticin was excluded. The cells were aliquoted into a white 96-well plate at a density of 4×10^4 cells/100 μl and cultured for 6 hours. 50 μl of the test compound diluted to 3× concentration was mixed with each well. After culturing the cell line for 24 hours, signals of luciferase were measured by luminescence according to manufacturer's protocols by using ONE-Glo luciferase assay system (Promega, E6120). A 50% inhibitory concentration (IC50) on TEAD transcription activity was calculated by using GraphPad Prism 9.
An IC50 value less than 100 nM was expressed as A, an IC50 value not less than 100 nM but less than 500 nM was expressed as B, and an IC50 value not less than 500 nM was expressed as C.
For orientation: A reporter such as luciferase makes a cellular process visible.

SMILES strings stand for the structures.

Broadly, the GI50 is the concentration that inhibits growth by half. The low end stands for more potent growth inhibition, the high end for less potent growth inhibition. The IC50 is the point on the concentration scale where inhibition reaches its midpoint.

Turning to `C=CC(=O)Nc1ccc2c(c1)c(-c1cn(C3CC3)cn1)cn2-c1ccc(C(F)(F)F)cc1` [Synthetic compound 2, N-(3-(1-cyclopropyl-1H-imidazol-4-yl)-1-(4-(trifluoromethyl)phenyl)-1H-indol-5-yl) acrylamide], the concentration for 50% growth inhibition (GI50) in the experiment on NCI-H226 cells was < 0.1 µM. In the experiment on TEAD, the IC50 is < 0.1 µM.

For the molecule `C=CC(=O)Nc1ccc2c(c1)c(-c1ccco1)cn2-c1ccc(C(F)(F)F)cc1` [Synthetic compound 3, N-(3-(furan-2-yl)-1-(4-(trifluoromethyl)phenyl)-1H-indol-5-yl)acrylamide], the GI50 in the experiment with NCI-H226 cells was < 0.1 µM. Also, in the experiment on TEAD, the IC50 was < 0.1 µM.

On to `C=CC(=O)Nc1ccc2c(c1)c(-c1cn(C3CCC3)cn1)cn2-c1ccc(C(F)(F)F)cc1` [Synthetic compound 4, N-(3-(1-cyclobutyl-1H-imidazol-4-yl)-1-(4-(trifluoromethyl)phenyl)-1H-indol-5-yl)acrylamide], for which the concentration for 50% growth inhibition (GI50) in the experiment on NCI-H226 cells is < 0.1 µM. The IC50 in the experiment with TEAD is < 0.1 µM.

As for `C=CC(=O)Nc1ccc2c(c1)c(-c1ccccc1F)cn2-c1ccc(C(F)(F)F)cc1` [Synthetic compound 5, N-(3-(2-fluorophenyl)-1-(4-(trifluoromethyl)phenyl)-1H-indol-5-yl)acrylamide], in the experiment with NCI-H226 cells, the concentration for 50% growth inhibition (GI50) was < 0.1 µM. Also, the half-inhibitory concentration (IC50) in the experiment on TEAD was < 0.1 µM.

With `C=C(F)C(=O)Nc1ccc2c(c1)c(-c1cn(C)cn1)cn2-c1ccc(C(F)(F)F)cc1` [Synthetic compound 6, 2-fluoro-N-(3-(1-methyl-1H-imidazol-4-yl)-1-(4-(trifluoromethyl)phenyl)-1H-indol-5-yl) acrylamide], the IC50 with TEAD was in the range of 0.1 to 0.5 µM.

In the case of `C=CC(=O)Nc1ccc2c(c1)c(-c1cn(CCOC)cn1)cn2-c1ccc(C(F)(F)F)cc1` [Synthetic compound 7, N-(3-(1-(2-methoxyethyl)-1H-imidazol-4-yl)-1-(4-(trifluoromethyl)phenyl)-1H-indol-5-yl)acrylamide], in the experiment on NCI-H226 cells, the GI50 is < 0.1 µM. Further, the half-inhibitory concentration (IC50) in the experiment on TEAD was < 0.1 µM.

In the case of `C=CC(=O)Nc1cnc2c(c1)c(-c1cn(C3CC3)cn1)cn2-c1ccc(C(F)(F)F)cc1` [Synthetic compound 8, N-(3-(1-cyclopropyl-1H-imidazol-4-yl)-1-(4-(trifluoromethyl)phenyl)-1H-pyrrolo[2,3-b]pyridin-5-yl)acrylamide], the GI50 in the experiment with NCI-H226 cells is < 0.1 µM. The half-inhibitory concentration (IC50) in the experiment with TEAD is < 0.1 µM.

`C=CC(=O)Nc1ccc2c(c1)c(-c1cn(C)cn1)cn2-c1ccc(C(F)(F)F)cc1` [Synthetic compound 9, N-(3-(1-methyl-1H-imidazol-4-yl)-1-(4-(trifluoromethyl)phenyl)-1pyrrolo[2,3-b]pyridin-5-yl)acrylamide]: the GI50 in the experiment with NCI-H226 cells is < 0.1 µM. In addition, in the experiment on TEAD, the concentration for half-maximal inhibition (IC50) was < 0.1 µM.

As for `C=CC(=O)Nc1cc2c(-c3cn(C)cn3)cn(-c3ccc(C(F)(F)F)cc3)c2cc1Cl` [Synthetic compound 10, N-(6-chloro-3-(1-methyl-1H-imidazol-4-yl)-1-(4-(trifluoromethyl)phenyl)-1H-indol-5-yl)acrylamide], in the experiment on TEAD, the half-maximal inhibitory concentration (IC50) is 0.1 to 0.5 µM.

Source of the values: US20250353831A1, “NOVEL HETEROBICYCLIC COMPOUND FOR INHIBITING YAP-TEAD INTERACTION AND PHARMACEUTICAL COMPOSITION COMPRISING SAME” (priority 2022, published 2025).
